Patent US20240009218A1, “COMPOSITIONS AND METHODS USING A COMBINATION OF OLEUROPEIN AND QUERCETIN FOR USE IN CARTILAGE DEGENERATION” (SOCIETE DES PRODUITS NESTLE S.A., priority 2020, published 2024)

Legend:
Assay type in all cases: cell-based
[1] = tested on: SW1353 cells; test: Mitochondrial membrane potential (JC-10 ratio fluorescence 590/525 nm) in SW1353 cells; settings: after 24 h of IL-1β vs control
Description: To measure mitochondrial membrane potential, SW1353 cells were seeded in 96-well plates at a density of 8000 cells per well in Growth medium (DMEM high glucose, Gibco) with 10% fetal calf serum. Then, cells were loaded with the fluorescent mitochondrial membrane potential sensor JC-10. Fluorescence was acquired with MetaXpress Confocal (Molecular Devices) at following emission wavelengths: 590 nm (excitation at 540 nm) and 525 nm (excitation 490 nm), according to supplier's instructions. The ratio fluorescence at 590 nm/525 nm is proportional to change in the mitochondrial membrane potential.

[2] = tested on: SW1353 cells; test: Mitochondrial calcium rise in SW1353 chondrocytes, IL-1β osteoarthritic model (mitochondrial aequorin); settings: SW1353 cells treated with IL-1β vs control
Description: To test the effect of oleuropein (or oleuropein aglycone), quercetin and their combination in living cells, the inventors measured mitochondrial calcium elevation in HeLa cells. HeLa cells were purchased from ATCC. HeLa cells were seeded in 96-well plates at a density of 50000 cells per well in minimal essential medium (DMEM, Gibco), high glucose, +10% fetal calf serum. Mitochondrial calcium measurements were carried out using Hela cells infected with the adenovirus (from Sirion biotech) expressing the mitochondrially targeted calcium sensor mitochondrial mutated aequorin (Montero et al., 2004). […] Luminescence was measured at the FLIPR Tetra Aequorin (Molecular Devices). […] Calibration of the luminescence data into calcium concentration was carried out using an algorithm, as described previously (Alvarez & Montero, 2002). Custom module analysis based on Excel (Microsoft) and GraphPad Prism 7.02 (Graph Pad) software was used for quantification.
To validate the effect of the pro-inflammatory cytokine Interleukin-1β as an osteoarthritis-mimetic in a chondrocyte cellular model and to test the effect of the mitochondrial calcium uniporter (MCU) ablation on chondrocyte function, the inventors measured chondrocyte function and mitochondrial function in SW1353 cells. […]

[3] = tested on: SW1353 cells; test: Cell death, Annexin-V positive cells (IncuCyte) in SW1353 cells; settings: after 5 days of IL-1β treatment vs control
Description: To quantify the effect of Interleukin-1β on cell death in SW1353 cells, kinetic experiments of apoptosis were performed with the IncuCyte ZOOM instrument (Essen Bioscience, Ann Arbor, MI, USA). Cells were seeded at 50% confluence in 96-well-plate format in DMEM medium. After 24 h, cells were incubated with IncuCyte Annexin-V Green (4642), according to supplier's instructions and treated with IL-1β. Four images per well were collected at the indicated time using a 10× objective and bandwidth filters (Ex: 440/80 nm; Em: 504/44 nm). Data were exported as area (μm2) per well covered by Annexin-V positive objects and normalized for the total area covered by the cells.

[4] = tested on: SW1353 cells; test: Chondrocyte function by western blot (collagen-IIα1, MMP3, MMP13) in SW1353 cells; settings: SW1353 cells treated with IL-1β 24 h or 48 h vs control
Description: To validate the effect of the pro-inflammatory cytokine Interleukin-1β as an osteoarthritis-mimetic in a chondrocyte cellular model and to test the effect of the mitochondrial calcium uniporter (MCU) ablation on chondrocyte function, the inventors measured chondrocyte function and mitochondrial function in SW1353 cells. SW1353 cells were purchased from ATCC. SW1353 cells were seeded in 96-well plates at a density of 10 000 cells per well […] (for mitochondrial calcium measurement) or at a density of 1 000 000 cells (for western blots). Cells were cultured in […] (DMEM, Gibco), high glucose, with 10% fetal calf serum and 1% Penicillin-Streptomycin.
To assess chondrocyte function, the expression of collagen-IIα1, aggrecan, metalloproteinase-3 and -13 (MMP3 and MMP13), were analyzed by western blotting. SW1353 cells were treated or not with 10 ng/ml Interleukin-1b for 24 h or 48 h. Protein extracts were prepared in an appropriate buffer containing 150 mM NaCl, 1.0% IGEPAL CA-630, 0.5% sodium deoxycholate, 0.1% SDS, 50 mM Tris, pH 8.0, Complete EDTA-free protease inhibitor mixture (Roche), 1 mM PMSF, 1 mM NaVO3, 5 mM NaF and 3 mM β-glycerophosphate and phosphatase inhibitors (Roche). 40 μg of total proteins were loaded, according to BCA quantification. Proteins were separated by SDS-PAGE electrophoresis, in commercial 4-12% acrylamide gels (Thermo Fisher Scientific) and transferred onto PVDF membranes (Thermo Fisher Scientific) by wet electrophoretic transfer. Blots were blocked 1 hour at RT with 5% bovine serum albumin (Sigma-Aldrich) in TBS-tween (0.5M Tris, 1.5M NaCl, 0.01% Tween) solution and incubated overnight at 4° C. with primary antibodies. Secondary antibodies were incubated 1 hr at RT. The following antibodies were used: anti-collagen-II al (1:1000, Abcam), anti-aggrecan (1:1000, Abcam), anti-MMP-3 (1:1000, Abcam), anti-MMP-13 (1:1000, Abcam). […] Then the content collagen-IIα1, aggrecan, MMP3 and MMP13 were quantified with densitometry and normalized on the content of GAPDH (detected with anti-GAPDH, 1:5000, Cell Signaling)

IL-1β: pro-inflammatory cytokine Interleukin-1β used as an osteoarthritis-mimetic in SW1353 chondrocytes
ratio fluorescence (590/525 nm) of mitochondrial membrane potential sensor JC10 [1]: significantly decreases | mitochondrial Ca2+ rise stimulated by agonist (histamine) [2]: decrease | Annexin-V positive cells (cell death) [3]: significantly increased | collagen-IIα1 content [4]: strongly decreased | expression of MMP3 [4]: increased | expression of MMP13 [4]: increased
